For one compound, Activity results are on record in ChEMBL document CHEMBL6120963, “Discovery of Novel PROTAC SIRT6 Degraders with Potent Efficacy against Hepatocellular Carcinoma” (J Med Chem, 2024).

In data set [1] the test system is SK-HEP1. As to the kind of experiment: Downregulation of ALDOB expression in human SK-HEP1 cells at 2.5 uM incubated for 36 hrs. In kind it is functional, cell-based.
Data set [2] in a line: Toxicity in BALB/c nude mouse xenografted with human SK-HEP1 cells assessed as pathological damage in heart at 10 mg/kg treated for 28 to 30 days under irradiation (3 Gy) by H and E staining based analysis. The settings on record: in vivo, time 28-30 day. It counts as organism-based. (Xenograft models place foreign cells or tissue in a host animal.)
Data set [3] addresses T1, Protein cereblon/NAD-dependent protein deacylase sirtuin-6 (Homo sapiens, UniProt Q8N6T7+Q96SW2). As to the kind of experiment: PROTAC activity at CRBN/SIRT6 in human SK-HEP1 cells assessed as reduction in fluorescence intensity of SIRT6 labeling incubated for about 36 hrs by immunofluorescence based analysis. It counts as cell-based.
Data set [4] relates to Huh-7. As to the kind of experiment: Effect on SIRT1 expression in human Huh-7 cells at 0.002 to 1 uM incubated for 36 hrs by Western blot analysis. In kind it is functional, cell-based. The settings on record: dose 0.002-1 µM.
Data set [5] is described as follows: Toxicity in BALB/c nude mouse xenografted with human SK-HEP1 cells assessed as pathological damage in spleen at 10 mg/kg treated for 28 to 30 days by H and E staining based analysis. It counts as organism-based. The note with it: in vivo, time 28-30 day.
Data set [6] deals with SK-HEP1. The data set can be described thus: Induction of apoptosis in human SK-HEP1 cells at 2.5 uM incubated for 72 hrs in presence of CPT by Annexin V-FITC/PI staining based flow cytometry. It counts as functional, cell-based. On the technique in general: Flow cytometry measures light scatter and fluorescence of single cells or particles in a stream.
Data set [7] has as its system SK-HEP1. As to the kind of experiment: Effect on H3K56Ac expression in human SK-HEP1 cells at 0.002 to 1 uM incubated for 36 hrs by Western blot analysis. The settings on record: dose 0.002-1 µM. In kind it is functional, cell-based.
Data set [8] can be described thus: Toxicity in BALB/c nude mouse xenografted with human SK-HEP1 cells assessed as histopathological abnormalities in lungs at 10 mg/kg treated for 28 to 30 days by H and E staining based analysis. It counts as organism-based. The settings on record: in vivo, time 28-30 day.
For data set [9], the target named is T1, Protein cereblon/NAD-dependent protein deacylase sirtuin-6. The data set can be described thus: In vivo PROTAC activity of CRBN/SIRT6 in human SK-HEP1 cells xenografted in BALB/c nude mouse assessed as induction of SIRT6 degradation at 10 mg/kg treated for 28 to 30 days. It counts as functional, organism-based. The note with it: time 28-30 day.
Data set [10] has the same target. As to the kind of experiment: PROTAC activity at CRBN/SIRT6 in human SK-HEP1 cells assessed as induction of SIRT6 degradation at 2 uM incubated for 36 hrs by In-Cell ELISA relative to control. It counts as cell-based. A general note: In an ELISA, binding on a coated surface is turned into a signal by an enzyme label.
Data set [11] is described as follows: Toxicity in BALB/c nude mouse xenografted with human SK-HEP1 cells assessed as pathological damage in lungs at 10 mg/kg treated for 28 to 30 days by H and E staining based analysis. In kind it is organism-based. The settings on record: in vivo, time 28-30 day.
Data set [12] deals with T1, Protein cereblon/NAD-dependent protein deacylase sirtuin-6. The data set can be described thus: PROTAC activity at CRBN/SIRT6 in human SK-HEP1 cells assessed as disruption of CHD4 recruitment to DSB sites at 2.5 uM incubated for 36 hrs followed by irradiation (10 Gy) treatment for 4 hrs by Western blot analysis. It counts as cell-based. The settings on record: time 40.0 hrs.

Data set [13] deals with SK-HEP1. The data set can be described thus: Induction of apoptosis in human SK-HEP1 cells assessed as rate of apoptotic cells at 10 uM incubated for 72 hrs by Annexin V-FITC/PI staining based flow cytometry relative to control. In kind it is functional.
The target of data set [14] is T1, Protein cereblon/NAD-dependent protein deacylase sirtuin-6. The data set can be described thus: PROTAC activity at CRBN/SIRT6 in human Hep3B cells assessed as induction of SIRT6 degradation incubated for 24 hrs by Western blot analysis. In kind it is cell-based.

Calls of active or inactive are those of the source. The rule behind the calls is not given here.

T1 sequence (Q8N6T7 2-355 limits assumed): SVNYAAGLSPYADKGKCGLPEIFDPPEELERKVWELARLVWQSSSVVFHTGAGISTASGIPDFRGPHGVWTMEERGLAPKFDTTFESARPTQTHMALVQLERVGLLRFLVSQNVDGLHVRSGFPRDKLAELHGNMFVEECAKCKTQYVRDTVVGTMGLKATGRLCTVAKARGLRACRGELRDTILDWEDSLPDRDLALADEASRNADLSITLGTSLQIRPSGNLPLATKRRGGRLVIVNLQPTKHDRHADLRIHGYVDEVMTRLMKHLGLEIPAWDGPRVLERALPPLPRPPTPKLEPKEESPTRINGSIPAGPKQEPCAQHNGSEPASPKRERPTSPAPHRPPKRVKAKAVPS
T1 sequence (Q96SW2 whole entry partner): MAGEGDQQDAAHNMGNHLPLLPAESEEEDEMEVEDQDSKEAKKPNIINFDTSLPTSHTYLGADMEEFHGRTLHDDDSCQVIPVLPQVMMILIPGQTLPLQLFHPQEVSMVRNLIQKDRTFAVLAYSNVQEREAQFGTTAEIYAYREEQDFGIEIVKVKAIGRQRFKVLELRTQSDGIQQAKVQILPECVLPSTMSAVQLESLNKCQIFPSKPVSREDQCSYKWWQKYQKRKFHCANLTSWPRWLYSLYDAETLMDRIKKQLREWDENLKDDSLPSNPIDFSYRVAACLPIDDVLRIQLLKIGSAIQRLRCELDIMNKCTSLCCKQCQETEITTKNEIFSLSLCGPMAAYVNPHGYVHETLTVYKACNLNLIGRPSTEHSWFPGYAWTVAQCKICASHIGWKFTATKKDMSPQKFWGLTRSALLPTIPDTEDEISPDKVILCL

Turning to `Nc1cc(N2CCN(CC3CCN(c4cc5c(cc4F)C(=O)N(C4CCC(=O)NC4=O)C5=O)CC3)CC2)ccc1[N+](=O)[O-]` (stereo not given), the result in data set [1], in [6], in data set [9], in data set [12] and in data set [13] was Active. The Activity result in data set [2] was “Non-toxic”; in [3] it was “Dose-dependent-effect”; in data set [4], “No effect”; in [5], “Non-toxic”; in data set [7], “No effect”; in [8] it was “Non-toxic”. Also, the Activity in data set [10] was 92.5%; in [11], “Non-toxic”; in [13] (record 2), “<=60%”; in [14], “Active; Reached A Plateau After 36 Hrs Of Treatment”.
